Data: PMC10946950, “Stretching the Bisalkyne Raman Spectral Palette Reveals a New Electrophilic Covalent Motif” (Chemistry (Weinheim an Der Bergstrasse, Germany), 2023)
Entries after “also recorded” stand apart in the source; their conditions may differ.

Key:
ES2 cells = test: AlamarBlue cell viability assay; format: cell-based; settings: Homo sapiens, ES-2, incubation 72 h
Experimental: Cell Culture. Human ovarian cancer cell line ES2 was purchased from the American Type Culture Collection, and cells maintained in a humidified incubator at 37°C and 5% CO2 in Dulbecco’s Modified Eagle Medium (DMEM, high glucose, Pyruvate, No Glutamine) (Gibco, cat#21969035), 10% FCS, 1% L-Glutamine (200 mM, ThermoFisher, cat#25-030-081), 1% Pen/Strep (ThermoFisher, cat# […]
AlamarBlue cell viability assay. ES2 cells were plated in sextuplicate wells in a 96-well plate at 3000 cells per well. Compounds were made up as 10 mM stocks in DMSO and added to the cells after 24 h at a range of concentrations (100 µM, 30 µM, 10 µM, 3 µM, 1 µM, 0.3 µM, 0.1 µM, 0.03 µM, 0.01 µM, DMSO only) in 100µl. As a background control 6 wells were plated with media with added DMSO and without cells. After 72 h, 11µl (10%) alamarBlue cell viability reagent (ThermoFisher, cat# DAL1025) was added to each well, including the background control. The plate was incubated at 37°C for 4 h after which the absorbance of the wells was measured with a standard spectrophotometer (Tecan Spark 20M) read at 540nm excitation and 580nm emission wavelength. For each sample the background signal intensity was subtracted from the sample signal intensity and then normalized to the DMSO […]
Subsequent analysis was performed on GraphPad Prism 9 software where the concentrations were converted to a logarithmic scale to which a non -linear regression curve was fitted using the log(inhibitor) vs normalized response with a variable slope model to calculate EC50 values.
Figure S3. EC50 values for compounds 3a – 3n in ES2 cells. Values calculated from 6 technical replicates following incubation for 72 h.
(§1) (1 picture or pasted object on this page, not shown here)

[1] = NMR based GSH-reactivity assay; format: in vitro ADME; settings: CD3CN:PBS 1:1, 37 °C
Experimental: NMR Assay: To 0.5 ml of assay buffer (1:1 CD3CN : 100 mM PBS in H2O), the individual diyne tags (10 mmol) were added, transferred to an NMR tube and 1H NMR spectra was acquired. To another 0.5 ml of the assay buffer, GSH (100 mmol) was added, which was then transferred to the NMR tube containing the buffer solution of the tags. The solution was mixed by inverting the tube several times. A final solution of 5 mmol tag and 50 mM GSH was achieved, a magnetic stirbar was added to the tubes and the NMR tubes were left on a stirplate at 37 °C. 1H NMR was recorded at 310 K (37 °C) after ~5 min and 24 h of reaction set up.
as §1

[2] = LC-MS based glutathione (GSH) reactivity assay; format: in vitro ADME; settings: for conversion to GS-adduct over 24 h / extent of conversion to GS-adducts (in words) / conversion to GS-adduct within 5 min: GSH, ACN:PBS buffer (1:1), 37 °C; for conversion to GS-adduct over 24 h / conversion to GS-adduct within 5 min: LC-MS 254 nm; for extent of conversion to GS-adducts (in words): runs at 5 min, 2 h; for conversion to GS-adduct over 24 h / extent of conversion to GS-adducts (in words): 24 h; for GSH reactivity compared with the electronically similar tag: 3b vs 3a, 3f vs BADY, 3g vs 3e, data not shown
Experimental: LC-MS Assay: To 0.5 ml of GSH (50 mmol) in assay buffer (100 mM PBS in H2O) at 37 °C, 0.5 ml of the diyne tag (5 mmol) in CH3CN was added to give a final concentration of 25 mmol and 2.5 mmol of GSH and diyne tags respectively. A magnetic stirbar was added to the assay mixture and stirred at 37 °C. Aliquots from the assay mixture were pipetted out and diluted for LC-MS (ESI+) submissions at 5 min, 2 h and 24 h time points. The chromatogram peaks at 254 nm were extracted to pick the UV-active [M+H]+ values corresponding to the unreacted tags and GS-Tag adducts. Relative intensity (or % conversion) of GS-Tag adduct compared to the unreacted tag for individual LC -MS run was calculated by taking the percentage of mAUGS-Tag divided by mAUGS-Tag + mAUunreacted tag (if A -> B, then % conversion = B/A+B). When [M+H]+ peak of the unreacted tag was below detectable limits, adduct […]
Figure S4. Overlay of the UV-active chromatograms extracted at 254 nm from the LC-MS runs of 3a, 3d, BADY, 3e, 3j and 3k. The chromatograms for each tag at 5 min (black), 2 h (green), 24 h (red) are overlaid. Minimal (3a, BADY), partial (3e) and full (3d, 3j and 3k) conversion were observed which correlated with the ring electronics. […]
are overlaid in a single graph. Conversion is deemed complete when the tag (M) was below detectable limits. * Tags isolated as a mixture of hetero-and homodimers or insoluble in the assay buffer (3i and 3c) were not included in the study. Tags 3b, 3f and 3g have not been shown as their reactivities were similar to the electronicall y similar 3a, BADY and 3e respectively. […]
as §1

| Compound | EC50 (ES2 cells) [µM] | conversion to GS-adduct over 24 h [2] | extent of conversion to GS-adducts (in words) [2] | GSH reactivity compared with the electronically similar tag [2] | further results |
| --- | --- | --- | --- | --- | --- |
| COC(=O)c1ccc(C#CC#Cc2cncn2C)n1C [3 a] | ≥ 100 | 1–2% | Minimal | – | change of 1H NMR 24 h post GSH addition [1]: no changes |
| COC(=O)c1ccc(C#CC#Cc2cncn2C)cc1 [3 b] | ≥ 100 | – | – | similar | – |
| COC(=O)c1ccc(C#CC#Cc2nccs2)cc1 [3 d] | – | reacted completely | complete conversion | – | conversion to GS-adduct within 5 min [2]: ~25%; extent of conversion to GS-adducts (in words) ([2]; listed as 3d): full |
| COC(=O)c1ccc(C#CC#Cc2ccccn2)cc1 [3 e] | 17.6 | ~25% | partial | – | – |
| COC(=O)c1ccc(C#CC#Cc2cccnc2)cc1 [3 f] | ≥ 100 | – | – | similar | – |
| COC(=O)c1ccc(C#CC#Cc2ccncc2)cc1 [3 g] | 24.1 | – | – | similar | – |
| COC(=O)c1ccc(C#CC#Cc2ccccn2)nc1 [3 i] | 1.63 | – | – | – | – |
| COC(=O)c1ccc(C#CC#Cc2ncccn2)nc1 [3 j] | 0.54 | – | complete conversion | – | conversion to GS-adduct within 5 min [2]: reacted completely; also recorded: complete conversion; conversion to GS-adduct within 5 min ([2]; listed as 3j): full conversion; extent of conversion to GS-adducts (in words) ([2]; listed as 3j): full |
| C(C#Cc1ccccc1)#Cc1ccccc1 [BADY, reference compound] | ≥ 100 | 1–2% | Minimal | – | change of 1H NMR 24 h post GSH addition [1]: no changes |
